Data taken from patent publication US5317103A, “Indole-substituted five-membered heteroaromatic compounds as 5-HT1 agonists” (Merck Sharp & Dohme Limited, priority 1992, dated 1994).
pEC50: −log10 of the molar value.

The molecules below were run against T1, 5-HT1 -like receptor (Oryctolagus cuniculus, UniProt P49144) (assay: agonist-mediated contraction of the saphenous vein of New Zealand White rabbits). Conditions: not given.
T1 construct: contraction of the saphenous vein of New Zealand White rabbits; from tissue; host or cells: saphenous vein of New Zealand White rabbits
T1 sequence (P49144 whole entry): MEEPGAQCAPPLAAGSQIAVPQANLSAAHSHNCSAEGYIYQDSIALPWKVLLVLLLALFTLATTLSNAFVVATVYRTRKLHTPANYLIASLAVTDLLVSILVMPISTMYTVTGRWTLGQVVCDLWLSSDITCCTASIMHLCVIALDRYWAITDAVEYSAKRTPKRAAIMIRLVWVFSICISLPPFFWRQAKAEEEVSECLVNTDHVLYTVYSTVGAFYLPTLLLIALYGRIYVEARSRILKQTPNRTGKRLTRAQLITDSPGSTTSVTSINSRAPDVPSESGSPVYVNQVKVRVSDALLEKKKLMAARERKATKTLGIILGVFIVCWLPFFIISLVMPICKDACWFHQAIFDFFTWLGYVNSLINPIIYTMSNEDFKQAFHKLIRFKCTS
Assay type: cell-based
Method: The activity of test compounds as agonists of the 5-HT1 -like receptor was measured in terms of their ability to mediate contraction of the saphenous vein of New Zealand White rabbits, using the procedure described in Arch. Pharm., 1990, 342, 111. Agonist potencies were calculated as -log10 EC50 (pEC50) values, from plots of percentage 5-HT (1 μm) response against the concentration of the agonist.
In the case of NCCc1c[nH]c2ccc(Cc3nc(N)no3)cc12 [Example 6], the pEC50 was at least 5.00.
CN(C)CCc1c[nH]c2ccc(-c3nc(CCNS(C)(=O)=O)no3)cc12 [Example 56, N,N-dimethyl-2-[5-(5-(3-(2-methylsulphonylamino)ethyl-1,2,4-oxadiazol)yl)-1H-indol-3-yl]ethylamine] was tested, and the pEC50 was at least 5.00.
With NCCc1c[nH]c2ccc(-c3nc(Cc4ccccc4)no3)cc12 [Example 1, 2-[5-(5-(3-Benzyl-1,2,4-oxadiazol)-yl)-1H-indol-3-yl]ethylamine] the pEC50 was at least 5.00.
CN(C)CCc1c[nH]c2ccc(-c3nc(N)no3)cc12 [Example 49, N,N-Dimethyl-2-[5-(5-(3-amino-1,2,4-oxadiazol)yl)-1H-indol-3yl]ethylamine] gave a pEC50 of at least 5.00.
CN(C)CCc1c[nH]c2ccc(-c3nc(Cc4ccc(NC(N)=O)cc4)no3)cc12 [Example 52, N,N-Dimethyl-2[5-(5-(3-(4-carbamoylaminobenzyl)-1,2,4-oxadiazol)yl)-1H-indol-3-yl]ethylamine] gave a pEC50 of at least 5.00.
In the case of NCCc1c[nH]c2ccc(Cc3nc(Cc4ccccc4)no3)cc12 [Example 4], the pEC50 was at least 5.00.
In the case of CC(=O)Nc1ccc(Cc2noc(-c3ccc4[nH]cc(CCN(C)C)c4c3)n2)cc1 [Example 27, N,N-Dimethyl-2-[5-[5-(3-(4-Acetylaminobenzyl)-1,2,4-oxadiazol)yl]-1H-indol-3-yl]ethylamine], the pEC50 was at least 5.00.
CN(C)CCc1c[nH]c2ccc(-c3nc(CCNC(=O)OC(C)(C)C)no3)cc12 [Example 53, N,N-dimethyl-2-[5-(5-(3-(2-t-butyloxycarbonylamino)ethyl-1,2,4-oxadiazol)yl)-1H-indol-3-yl]ethylamine] gave a pEC50 of at least 5.00.
For CNS(=O)(=O)c1ccc(Cc2noc(Cc3ccc4[nH]cc(CCN(C)C)c4c3)n2)cc1 [Example 65, N,N-Dimethyl-2-[5-(5-(3-(4-methylaminosulphonylbenzyl)-1,2,4-oxadiazol)ylmethyl)-1H-indol-3-yl]ethylamine], the pEC50 was at least 5.00.
With CN(C)CCc1c[nH]c2ccc(Cc3nc(CNC(=O)c4ccccc4)no3)cc12 [Example 88, N,N-Dimethyl-2-[5-(5-(3-phenylcarboxamidomethyl-1,2,4-oxadiazol)ylmethyl)-1H-indol-3-yl]ethylamine] the pEC50 was at least 5.00.
For CN(C)CCc1c[nH]c2ccc(Cc3nc(N)no3)cc12 [Example 30, N,N-Dimethyl-2-[5-[5-(3-Amino-1,2,4-oxadiazol)ylmethyl]-1H-indol-3-yl]ethylamine], the pEC50 was at least 5.00.
NCCc1c[nH]c2ccc(-c3nc(Cc4ccc(NC(N)=O)cc4)no3)cc12 [Example 44, 2-[5-(5-(3-(4-Carbamoylaminobenzyl)-1,2,4-oxadiazol)yl)-1H-indol-3-yl]ethylamine] was tested, and the pEC50 was at least 5.00.
With CN(C)CCc1c[nH]c2ccc(Cc3nc(N4CCN(C(=O)OC(C)(C)C)CC4)no3)cc12 [Example 93, N,N-Dimethyl-2-[5-(5-(3-(4-^t-butyloxycarbonyl)piperazine-1,4-yl-1,2,4-oxadiazol)ylmethyl)-1H-indol-3-yl]ethylamine] the pEC50 was at least 5.00.
For NCCc1c[nH]c2ccc(-c3nc(N)no3)cc12 [Example 45, 2-[5-(5-(3-Amino-1,2,4-oxadiazol)-yl)-1H-indol-3-yl]ethylamine], the pEC50 was at least 5.00.

Same assay, conditions: rabbit saphenous vein contraction; from plots of percentage 5-HT (1 μm) response against agonist concentration
For CN(C)CCc1c[nH]c2ccc(CCc3nc(N)no3)cc12 [Example 61, N,N-Dimethyl-2-[5-(2-(5-(3-amino-1,2,4-oxadiazol)yl)ethyl)-1H-indol-3-yl]ethylamine], the “agonist potency -log10 EC50 (pEC50)” value was “not less than 5.0”.
CN(C)CCc1c[nH]c2ccc(-c3nc(Cc4ccc(NS(C)(=O)=O)cc4)no3)cc12 [Example 28, N,N-Dimethyl-2-[5-[5-(3-(4-Methylsulphonylaminobenzyl)-1,2,4-oxadiazol)yl]-1H-indol-3-yl]ethyl amine] was tested, and the “agonist potency -log10 EC50 (pEC50)” value was “not less than 5.0”.

Same assay, conditions: rabbit saphenous vein contraction; from plots of percentage 5-HT (1 μm) response against agonist concentration; read-out: agonist potency -log10 EC50 (pEC50) (converted)
Work on CN1CCC(c2c[nH]c3ccc(Cc4nc(N)no4)cc23)CC1 [Example 110, 4-[5-(3-Amino-1,2,4-oxadiazol-5-ylmethyl)-1H-indol-3-yl]N-methylpiperidine] yielded an EC50 of at most 10 µM.
